The target in data set [1] is T1, acetylcholinesterase (Homo sapiens, UniProt P22303).
T1 construct: washed human red cells as the source of acetylcholinesterase; from tissue; host or cells: washed human red cells
The data set can be described thus: In vitro anticholinesterase activity, Michel method (acetylcholine substrate, washed human red cells as enzyme source). Format: biochemical. The method, then: Screening for anticholinesterase activity was carried out in vitro by the Michel method (J. Lab. Clin. Med 34, 1564, (1949)) using acetylcholine as substrate, washed human red cells as the source of acetylcholinesterase.

Data set [2] addresses T2, bovine erythrocyte acetylcholinesterase (Bos taurus, UniProt P23795).
T2 construct: bovine erythrocyte acetylcholinesterase as enzyme; from tissue; host or cells: bovine erythrocytes
The data set can be described thus: In vitro anticholinesterase test, method of Ellmann (acetylthiocholine substrate, Lineweaver-Burk, Ki). Format: biochemical. The following applies: for Ki: acetylthiocholine substrate, bovine erythrocyte acetylcholinesterase, competitive conditions; for antiacetylcholinesterase potency versus neostigmine: from Ki, in words. On the procedure:
In vitro testing of compounds was carried out by the method of Ellmann, Biochem. Pharmacol. 7, 88 (1961) with acetylthiocholine as substrate and bovine erythrocyte acetylcholinesterase as enzyme. Reaction rates were determined with and without inhibitor under competitive conditions (i.e. the substrate was added before the inhibitor). Results were plotted by the Lineweaver-Burk method and these plots were used to determine inhibitor constants (Ki values).
On the technique in general: DTNB colorimetry detects thiols as they appear.

Data set [3] deals with acetylcholinesterase. The following applies: after dosage; as thought by some workers; cited from earlier work.
Data set [4] has as its system constriction of the pupil in the eye of the mouse. Description: Mouse miosis test of Schneider. The format is in vivo. The following applies: for Potency, Mouse Miosis: SC, relative to neostigmine (1.0); for in vivo potency versus neostigmine: mouse miosis, in words. On the procedure: (§1) In vivo testing was carried out employing the mouse miosis test of Schneider R, J. Pharm. Pharmacol. 22, 298 (1970) in which antiacetylcholinesterases induce constriction of the pupil in the eye of the mouse, and the rat chromodacryorrhoea test of Burgen A.S.V.Brit.J.Pharmacol. 4; 185 (1949) in which antiacetylcholinesterases potentiate the ability of acetylcholine to provoke red tears in rats. Both tests enable the potency and duration of action of antiacetylcholinesterases to be assessed.

In data set [5] the test system is ability of acetylcholine to provoke red tears in rats. Description: Rat chromodacryorrhoea test of Burgen. Format: in vivo. The following applies: for Potency, Rat chromod.: IP, relative to neostigmine (1.0); for in vivo potency versus neostigmine: rat chromodacryorrhoea, in words. The method, then:
as §1

Data set [6] deals with neuromuscular effects of tubocurarine. The data set can be described thus: Reversal of tubocurarine neuromuscular effects in man (human volunteers; anterior compartment leg muscle twitch). The format is in vivo. The following applies: for recovery from tubocurarine block: I.V. in saline, 0.6 to 0.8 mg methobromide or 2.5 mg neostigmine (after 1.2 mg atropine). The method, then: Substantiation for some of these estimates has come from the results of tests carried out in human volunteers. In these experiments contractions of the anterior compartment leg muscles were induced by supramaximal stimulation of the lateral popliteal nerve. After recording a period of control activity, tubocurarine was administered as a slow I.V. infusion until the muscle twitch height was reduced to approximately 50% of control levels. Three minutes later the anticholinesterase was administered (I.V. in saline) and the twitch height monitored until control levels were re-attained.

For data set [7], the system named is tubocurarine-induced muscle blockade. The data set can be described thus: Reversal of tubocurarine-induced muscle blockade in cats (anterior tibialis twitch). Format: in vivo. The following applies: Felis catus, iv; Cat; injected into the femoral vein; read-out: Dose necessary to produce maximum anti-curare effect. The source says:
(§2) D-Tubocurarine is used clinically to produce relaxation of skeletal muscles in patients undergoing certain surgical procedures. Following the completion of surgery antiacetylcholinesterases are used to reverse this relaxation. Experiments have been carried out to measure the ability of the compounds of the invention to reverse tubocurarine-induced muscle blockade in rats and cats.
(§3) The method was based on that of Zaimis E, J. Physiol 122, 238 (1953) in which animals were anaesthetised and the left hind limb clamped ridigly in a horizontal position with the tendon of the anterior tibialis muscle attached to a flat spring myograph. Twitches of the anterior tibialis muscle were induced by supramaximal electrical stimulation of the tibial nerve and recorded on a strip recorder. Drugs dissolved in 0.9% saline were injected into the femoral vein. During an experiment the dose of tubocurarine necessary to establish a partial (80 to 90%) blockade of neuromuscular transmission was established an anticholinisterase drugs were subsequently injected at the time of maximum blockade. Recovery achieved after the administration of an antiacetylcholinesterase was compared with the recovery after tubocurarine alone.

Data set [8] has the same test system. Description: Reversal of tubocurarine-induced muscle blockade in rats (anterior tibialis twitch). The format is in vivo. The following applies: iv; Rat; injected into the femoral vein; read-out: Dose necessary to produce maximum anti-curare effect.
From the text: as §2, §3

A short description of data set [9]: Intravenous LD50 in rats and therapeutic ratio. Format: in vivo, rat. The following applies: for margin of safety when used in man: expected from the rat therapeutic ratios; for selectivity ratio / LD50: rat, in vivo, rats; for selectivity ratio: iv, ratio of LD50 to the dose giving maximum tubocurarine reversal; for LD50: intravenous. The source says: The intravenous LD50 has been determined in rats for the three above mentioned drugs and from the results obtained the therapeutic ratios (defined as the ratio of LD50 to the dose giving maximum tubocurarine reversal) have been calculated: […]

The next data set has as its system muscarinic activity. The data set can be described thus: Muscarinic activity in animal experimentation. Format: in vivo.
Data set [10] deals with neuromuscular effects of tubocurarine. The following applies: in the clinic; cited from earlier work.

Broadly, the IC50 is the concentration that inhibits the measured activity by half. A lower IC50 goes with inhibition by little substance. By Ki is commonly meant a measure of affinity in units of concentration, obtained from inhibition or displacement. The LD50 is the dose expected to kill half of the subjects tested.

T1 sequence (P22303 other isoform, or with tags, fused parts or gaps): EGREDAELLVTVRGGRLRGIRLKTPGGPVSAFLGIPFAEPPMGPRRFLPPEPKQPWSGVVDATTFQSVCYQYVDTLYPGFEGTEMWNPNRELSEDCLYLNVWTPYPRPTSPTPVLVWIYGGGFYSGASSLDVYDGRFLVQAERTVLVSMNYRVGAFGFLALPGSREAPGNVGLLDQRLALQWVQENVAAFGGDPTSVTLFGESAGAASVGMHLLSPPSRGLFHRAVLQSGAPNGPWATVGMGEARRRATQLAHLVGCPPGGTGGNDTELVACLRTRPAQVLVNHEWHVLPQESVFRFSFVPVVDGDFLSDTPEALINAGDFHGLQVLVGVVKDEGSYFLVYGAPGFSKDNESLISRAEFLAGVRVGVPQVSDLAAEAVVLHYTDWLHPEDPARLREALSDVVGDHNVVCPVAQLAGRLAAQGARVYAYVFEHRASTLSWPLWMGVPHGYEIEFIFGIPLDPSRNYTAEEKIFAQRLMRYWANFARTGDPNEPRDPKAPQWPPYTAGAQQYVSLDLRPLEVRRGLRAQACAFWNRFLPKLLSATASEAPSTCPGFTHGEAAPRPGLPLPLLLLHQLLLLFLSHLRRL
T2 sequence (P23795 other isoform, or with tags, fused parts or gaps): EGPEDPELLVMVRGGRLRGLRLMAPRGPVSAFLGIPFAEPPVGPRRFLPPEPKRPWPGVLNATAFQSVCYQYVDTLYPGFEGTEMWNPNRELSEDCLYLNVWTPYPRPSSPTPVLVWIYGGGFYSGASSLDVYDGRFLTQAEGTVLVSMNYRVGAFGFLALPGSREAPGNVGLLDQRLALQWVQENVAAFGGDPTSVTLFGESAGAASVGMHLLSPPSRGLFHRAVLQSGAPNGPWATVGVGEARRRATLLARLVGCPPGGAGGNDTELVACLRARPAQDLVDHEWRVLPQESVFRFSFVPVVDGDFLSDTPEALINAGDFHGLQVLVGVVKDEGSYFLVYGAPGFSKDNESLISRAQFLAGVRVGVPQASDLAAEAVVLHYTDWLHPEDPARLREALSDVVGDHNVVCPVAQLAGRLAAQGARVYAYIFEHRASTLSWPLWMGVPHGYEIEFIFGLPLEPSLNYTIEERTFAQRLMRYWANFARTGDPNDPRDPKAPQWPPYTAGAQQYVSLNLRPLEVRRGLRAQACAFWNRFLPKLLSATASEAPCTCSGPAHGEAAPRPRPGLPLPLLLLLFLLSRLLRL

For `Cc1ccc([C@H]2CCCC[C@H]2[N+]2(C)CCCC2)cc1` (relative stereo) [Example 7], on acetylcholinesterase [1], half-maximal inhibition (IC50) required 1000 nM. This lies in the single-digit micromolar range.
In turn, `CN(C)C(=O)Oc1ccc[n+](C)c1` [Pyridostigmine, reference compound] registered a Ki in data set [2] of 4800 nM. For the same compound, in the data set on acetylcholinesterase [3], the “reversal of enzyme inhibition” value was “relatively slow reversal”.
In the case of `CC[N+](C)(C)c1cccc(O)c1` [Edrophonium, reference compound], in data set [4], the “Potency, Mouse Miosis” value came out at 0.04. For the same compound, the “Potency, Rat chromod.” value in data set [5] is listed as 0.09.
The compound `CCCC(=O)Oc1cccc([C@@H]2CCCC[C@@H]2[N+]2(C)CCCC2)c1` (relative stereo) [Example 5, cis-2-(3-Butyryloxyphenyl)-1-pyrrolidinocyclohexane methiodide] displayed an IC50 against acetylcholinesterase [1] of 20 nM. This counts as double-digit nanomolar.
Same read-out and setting: the figure for `C[N+]1([C@@H]2CCCC[C@@H]2c2cc(O)ccc2O)CCCC1` (relative stereo) [Example 16] is 10 nM.
`C[N+]1([C@@H]2CCCC[C@@H]2c2cccc(O)c2)CCCC1` (stereo in doubt) [Example 2, cis-2-(3-Hydroxyphenyl)-1-pyrrolidinocyclohexane Methobromide] yielded a 50% inhibitory concentration (IC50) against acetylcholinesterase [1] of 20 nM. In addition, in [6] (0.6 to 0.8 mg I.V. versus 2.5 mg neostigmine with 1.2 mg atropine), the “incidence of muscarinic effects” value is “less than that produced by the neostigmine/atropine combination”. Also, the “recovery from tubocurarine block” value in [6] is reported as “Prompt recovery”.
Turning to `C[N+]1([C@@H]2CCC[C@@H]2c2cccc(O)c2)CCCC1` (relative stereo) [Example 14], it took 100 nM to reach half-maximal inhibition against acetylcholinesterase [1] (IC50).
In the case of `Cc1cccc([C@H]2CCCC[C@H]2[N+]2(C)CCCC2)c1` (relative stereo) [Example 8], the IC50 on acetylcholinesterase [1] was 6000 nM.
With `C[N+]1([C@H]2CCCC[C@H]2c2cccc(O)c2)CCCC1` (stereo in doubt) [Example 11, cis-2-(3-hydroxyphenyl)-1-pyrrolidinocyclohexane methiodide], the concentration for half-maximal inhibition (IC50) at acetylcholinesterase [1] was found to be 20 nM. Besides, in data set [2], the inhibitory constant (Ki) was 7.3 nM and the “antiacetylcholinesterase potency versus neostigmine” value is reported as “more potent than neostigmine”. The ED (maximum effect) in [7] was 0.03 mg/kg. Moreover, the ED (maximum effect) in data set [8] turned out to be 0.025 mg/kg. Moreover, in [9], the “margin of safety when used in man” value is given as “wide margin of safety”, the selectivity ratio turned out to be 15 and the 50% lethal dose (LD50) was determined as 0.18 mg/kg. In [4], the “Potency, Mouse Miosis” value came out at 9.6 and the “in vivo potency versus neostigmine” value is listed as “more potent than neostigmine”. Further, in data set [5], the “Potency, Rat chromod.” value is listed as 6.0 and the “in vivo potency versus neostigmine” value is “more potent than neostigmine”. Also, in the data set on muscarinic activity, the muscarinic activity result is on record as “less muscarinic activity”.
On to `CN(C)C(=O)Oc1cccc([N+](C)(C)C)c1` [Neostigmine, reference compound], for which, in [2], the affinity corresponds to a Ki of 30 nM. In addition, the ED (maximum effect) in data set [7] and in [8] was 0.1 mg/kg each time. For the same compound, the LD50 in data set [9] is 0.2 mg/kg. Moreover, the “recovery from tubocurarine block” value in [6] was “Prompt recovery”. Moreover, the “clinical intravenous dose to reverse the neuromuscular effects of tubocurarine” value in [10] was 2.5 to 3.0 mg. Moreover, in the data set with acetylcholinesterase [3], the “reversal of enzyme inhibition” value is on record as “relatively slow reversal”.
Take `C[N+]1([C@@H]2CCCC[C@H]2c2cccc(O)c2)CCCC1` (relative stereo) [trans-2-(3-hydroxyphenyl)-1-pyrrolidinocyclohexane methiodide, reference compound]: the IC50 on acetylcholinesterase [1] worked out at 100000 nM. The “activity of cis compound relative to trans compound (fold as active)” value on acetylcholinesterase [1] (Example 11 versus corresponding trans compound) is recorded as around 5000 ×.
Compound `C[N+]1([C@@H]2CCCC[C@@H]2c2ccc(Cl)cc2)CCCC1` (relative stereo) [Example 10] displayed an IC50 against acetylcholinesterase [1] of 200 nM.
As for `Nc1c2c(nc3ccccc13)CCCC2` [Tacrine, reference compound], in data set [4], the “Potency, Mouse Miosis” value was found to be 0.21. In addition, the “Potency, Rat chromod.” value in data set [5] stood at 0.38.
For `CC[N+](CC)(CCNC(=O)C(=O)NCC[N+](CC)(CC)Cc1ccccc1Cl)Cc1ccccc1Cl` [Ambenonium, reference compound] the same measures were 0.06 and 0.03.
Regarding `C[N+]1([C@@H]2CCCC[C@@H]2c2ccccc2)CCCC1` (relative stereo) [Example 1, cis-2-Phenyl-1-pyrrolidinocyclohexane Methiodide], at acetylcholinesterase [1], the IC50 came to 200 nM. In addition, in data set [2], affinity was put at a Ki of 7.7 nM and the “antiacetylcholinesterase potency versus neostigmine” value is reported as “more potent than neostigmine”. For the same compound, the ED (maximum effect) in [7] was 0.1 mg/kg. For the same compound, the ED (maximum effect) in data set [8] was found to be 0.1 mg/kg. Further, in data set [9], the “margin of safety when used in man” value was “wide margin of safety”, the selectivity ratio turned out to be 7.2 and the 50% lethal dose (LD50) turned out to be 1.5 mg/kg. In addition, in data set [4], the “Potency, Mouse Miosis” value was determined as 1.6 and the “in vivo potency versus neostigmine” value is recorded as “more potent than neostigmine”. In data set [5], the “Potency, Rat chromod.” value amounted to 2.0 and the “in vivo potency versus neostigmine” value was “more potent than neostigmine”. In addition, the muscarinic activity result in the data set with muscarinic activity is listed as “less muscarinic activity”.

The values above are taken from patent US3998843A (priority 1972, dated 1976).
